Source: patent publication US8420574B2, “Plant growth enhancement with combinations of PESA and herbicides” (Valent BioSciences Corporation, priority 2009, dated 2013)
Structures can show the parent of a compound that is named as a salt.

System: rice cv. Cheniere
Experiment: Pouch assay, PESA salt and herbicide added to the pouch solution; root and shoot length
Type: in vivo
Protocol: Alternatively, PESA salt and herbicides may be added separately to the sterile water in the growth pouch.
Seeds were placed in germination pouches consisting of germination paper hydrated with sterile water that was an insert in a gas-permeable 16×14 cm plastic pouch (CYG Pouch; Mega International, St. Paul, Minn.). In these examples, in pouch solution evaluation, PESA sodium salt or other active ingredients were added to the sterile water in the pouch. The pouches were arranged in a completely randomized block design in growth racks and placed in 19-liter polycarbonate food storage containers (Rubbermaid Commercial Products, Winchester, Va.). The sealed containers were held in an upright growth cabinet maintained at 25 C with a 12 hour light: 12 hour dark photoperiod. After 6 days, the containers were removed from the growth cabinet, and the lengths of the roots and shoot were measured.

Which results are given for `O=C(O)CCC(=O)NCCc1ccccc1` [PESA salt, N-(2-phenylethyl)succinamic acid]?
Shoot Length (0 ppm pendimethalin, treatment 30 ppm PESA salt, 10 ppm GA3 or both, untreated 3.9): 3.8 cm; Root Length (0 ppm pendimethalin, treatment 30 ppm PESA salt, 10 ppm GA3 or both, untreated 9.7): 11.2 cm; Shoot Length (10 ppm dithiopyr, treatment none (Control), 30 ppm PESA salt, 10 ppm GA3 or both, untreated 3.9): 2.8 cm; Root Length (10 ppm dithiopyr, treatment none (Control), 30 ppm PESA salt, 10 ppm GA3 or both, untreated 9.5): 6.4 cm; Shoot Length (30 ppm PESA salt, 0 ppm chlorsulfuron, untreated 4.8): 4.9 cm; Root Length (30 ppm PESA salt, 0 ppm chlorsulfuron, untreated 11.6): 12.8 cm; Shoot Length (30 ppm PESA salt, 0 ppm dithiopyr, untreated 4.0): 4.2 cm; Root Length (30 ppm PESA salt, 0 ppm dithiopyr, untreated 9.5): 12.2 cm; Shoot Length (30 ppm PESA salt, 0 ppm metolachlor, untreated 3.7): 3.7 cm; Root Length (30 ppm PESA salt, 0 ppm metolachlor, untreated 9.3): 10.9 cm; Shoot Length (30 ppm PESA salt, 0 ppm pendimethalin, untreated 3.4): 3.6 cm; Root Length (30 ppm PESA salt, 0 ppm pendimethalin, untreated 8.5): 10.1 cm; Shoot Length (30 ppm PESA salt, 0 ppm trifluralin, untreated 3.2): 3.7 cm; Root Length (30 ppm PESA salt, 0 ppm trifluralin, untreated 9.2): 10.7 cm; Shoot Length (30 ppm PESA salt, 1 ppm dithiopyr, untreated 4.0): 4.0 cm; Root Length (30 ppm PESA salt, 1 ppm dithiopyr, untreated 9.5): 11.4 cm; Shoot Length (30 ppm PESA salt, 1 ppm metolachlor, untreated 3.7): 3.9 cm; Root Length (30 ppm PESA salt, 1 ppm metolachlor, untreated 9.3): 8.6 cm; Shoot Length (30 ppm PESA salt, 1 ppm trifluralin, untreated 3.2): 3.6 cm; Root Length (30 ppm PESA salt, 1 ppm trifluralin, untreated 9.2): 10.6 cm; Shoot Length (30 ppm PESA salt, 10 ppm chlorsulfuron, untreated 4.8): 0.9 cm; Root Length (30 ppm PESA salt, 10 ppm chlorsulfuron, untreated 11.6): 0.5 cm; Shoot Length (30 ppm PESA salt, 10 ppm dithiopyr, untreated 4.0): 3.7 cm; Root Length (30 ppm PESA salt, 10 ppm dithiopyr, untreated 9.5): 9.1 cm; Shoot Length (30 ppm PESA salt, 10 ppm metolachlor, untreated 3.7): 0.9 cm; Root Length (30 ppm PESA salt, 10 ppm metolachlor, untreated 9.3): 4.4 cm; Shoot Length (30 ppm PESA salt, 10 ppm pendimethalin, untreated 3.4): 3.2 cm; Root Length (30 ppm PESA salt, 10 ppm pendimethalin, untreated 8.5): 9.4 cm; Shoot Length (30 ppm PESA salt, 10 ppm trifluralin, untreated 3.2): 2.9 cm; Root Length (30 ppm PESA salt, 10 ppm trifluralin, untreated 9.2): 9.1 cm; Shoot Length (30 ppm PESA salt, 100 ppm chlorsulfuron, untreated 4.8): 0.8 cm; Root Length (30 ppm PESA salt, 100 ppm chlorsulfuron, untreated 11.6): 0.3 cm; Shoot Length (30 ppm PESA salt, 100 ppm dithiopyr, untreated 4.0): 1.1 cm; Root Length (30 ppm PESA salt, 100 ppm dithiopyr, untreated 9.5): 0.4 cm; Shoot Length (30 ppm PESA salt, 100 ppm metolachlor, untreated 3.7): 0.6 cm; Root Length (30 ppm PESA salt, 100 ppm metolachlor, untreated 9.3): 1.7 cm; Shoot Length (30 ppm PESA salt, 100 ppm pendimethalin, untreated 3.4): 1.0 cm; Root Length (30 ppm PESA salt, 100 ppm pendimethalin, untreated 8.5): 3.1 cm; Shoot Length (30 ppm PESA salt, 100 ppm trifluralin, untreated 3.2): 2.4 cm; Root Length (30 ppm PESA salt, 100 ppm trifluralin, untreated 9.2): 5.1 cm; Shoot Length (30 ppm PESA salt, 500 ppm pendimethalin, untreated 3.4): 0.5 cm; Root Length (30 ppm PESA salt, 500 ppm pendimethalin, untreated 8.5): 0.6 cm; protection of roots from herbicide (30 ppm PESA with 10 ppm dithiopyr): protected the roots largely from the negative effects of dithiopyr; protection of roots from herbicide (30 ppm PESA with 100 ppm trifluralin): largely protected the roots from the negative effects of trifluralin; Shoot Length (50 ppm pendimethalin, treatment none (Control), 30 ppm PESA salt, 10 ppm GA3 or both, untreated 3.9): 1.1 cm; Root Length (50 ppm pendimethalin, treatment none (Control), 30 ppm PESA salt, 10 ppm GA3 or both, untreated 9.7): 5.6 cm; root length greater than with pendimethalin alone (PESA and pendimethalin, on average): 20%; root length relative to pendimethalin alone (PESA salt added to pendimethalin (Table 4)): twice the length of those grown in pendimethalin alone; effect on root and shoot length (PESA salt in the absence of trifluralin): significant increase in both root and shoot length; protection of roots from herbicide (PESA salt with 10 ppm metolachlor): partially protected primary root length; protection of root length from herbicide (PESA salt with chlorsulfuron, rice): had no activity in combination with chlorsulfuron; effect on shoot length under herbicide (PESA salt with dithiopyr): did not significantly alter the negative effects of dithiopyr on shoot length; effect on shoot growth under herbicide (PESA salt with pendimethalin): did not overcome the negative effects of pendimethalin on shoot growth; effect on shoot length under herbicide (PESA salt with trifluralin): did not consistently overcome the negative effects of trifluralin on shoot length; root length increased by (addition of 30 ppm PESA to 100 ppm pendimethalin): 25%; Shoot Length (no dithiopyr (Control), treatment 30 ppm PESA salt, 10 ppm GA3 or both, untreated 3.9): 3.6 cm; Root Length (no dithiopyr (Control), treatment 30 ppm PESA salt, 10 ppm GA3 or both, untreated 9.5): 10.7 cm
